We go through eight compounds from PubChem BioAssay (NCI).

Common to all, as to test: NCI-60 cell line screen, 48 h
Assay [1] relates to MALME-3M melanoma.
Assay [2] concerns UACC-62 melanoma.
Assay [3] relates to HOP-92 NSCLC.
For assay [4], the system named is TK-10 renal.
Assay [5] has as its system SNB-19 CNS.
In assay [6] the test system is BT-549 breast.
Assay [7] concerns RPMI-8226 leukemia.
Assay [8] deals with HL-60(TB) leukemia.
Assay [9] relates to 786-0 renal.
Assay [10] has as its system CCRF-CEM leukemia.

“And” between values parts separate entries of the source, which are not always exact repeats. Equal entries are not always repeated.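 Five concentrations, 48 hours, 96-well plates. Abbreviation: GI50, concentration required for 50% inhibition of growth. TGI is the concentration that stops growth completely.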

`Nc1cc2cccc[n+]2c2cccc(Cl)c12`: the GI50 in assay [1] was 3.21 µM; in assay [2], 24.7 µM; in assay [3], 51 µM; in assay [4], 94.7 µM; in [5], 12.7 µM; in assay [6], 16.1 µM. For the same compound, the GI50 in [7] is 21.3 µM; in assay [8] it was 47.4 µM; in assay [9], 22.1 µM; in assay [10], 12 µM. Besides, the TGI in assay [1] was 13.5 µM; in [2], 59.8 µM; in assay [5] it was 84.1 µM; in [6] it was 48.8 µM; in assay [10], 94.4 µM.

For `C=CCCCOC1[C@H](OCc2ccccc2)C(OCc2ccccc2)C(OC)O[C@@H]1CNC(=O)c1cccc(I)c1` (some centres undefined), the GI50 was 5.43 µM in assay [1]; 3.8 µM in assay [2]; 5.08 µM in assay [3]; 5.3 µM in [4]; 6.35 µM in assay [5]; 8.79 µM in assay [6]. The GI50 is 2.57 µM in [7], 2.83 µM in assay [8], 3.78 µM in assay [9] and 3.55 µM in [10]. Moreover, the TGI in assay [1], in assay [2], in assay [3], in [4], in assay [5] and in assay [6] was more than 100 µM each time. Further, the TGI in assay [7] was 9.19 µM; in [8] it was 21.3 µM; in assay [9], more than 100 µM; in assay [10] it was more than 100 µM.

With `CC(=O)O.CC(=O)O.CC(=O)O.CC(=O)O.[Rh].[Rh]`, the GI50 is 7.06 µM in [1]; 24.3 µM in [2]; 25.5 µM in [3]; 18.3 µM in [4]; 60 µM in [5]; 29.5 µM in assay [6]. Moreover, the GI50 in [7] is 19.4 µM; in [8], 23.7 µM; in assay [9], 34.8 µM; in assay [10] it was 5.1 µM. In addition, the TGI was 37.4 µM in assay [1]; 56.5 µM in [2]; 63.1 µM in assay [3]; 56.4 µM in assay [4]; more than 100 µM in assay [5]; 90.3 µM in [6]. The TGI is 50.8 µM in [7], 50.9 µM in assay [8], more than 100 µM in assay [9] and 20.3 µM in assay [10].

With `Oc1c(Cl)cc(Cl)c2cccnc12`, the GI50 in assay [1] is 2.78 µM; in assay [2], 1.79 µM; in assay [3], 2.8 µM; in assay [4], 5.56 µM; in assay [5], 3.73 µM; in [6], 4.12 µM. The GI50 in assay [7] is 4.34 µM; in assay [8], 2.87 µM; in [9] it was 3.29 µM; in assay [10] it was 2.75 µM. In addition, the TGI in assay [1] worked out at 13.1 µM; in [2] it was 5.04 µM; in [3], 26.3 µM; in [4] it was 30.8 µM; in assay [5] it was 24.6 µM; in assay [6], 52.7 µM. Further, the TGI in assay [7] is more than 100 µM; in [8], 6.65 µM; in assay [9], 11.8 µM; in assay [10] it was more than 100 µM.

Take `COc1ccc(Oc2ccccc2NC(=O)CNC(=O)c2cccc3ccccc23)cc1`: the GI50 in assay [1] is more than 25 µM; in assay [2], 0.559 µM; in assay [3], more than 25 µM; in assay [4] it was 2.15 µM; in assay [5], 1.24 µM; in [6], 1.12 µM. The GI50 in assay [7] is 1.13 µM; in assay [8], 0.613 µM; in assay [9], 1.14 µM; in [10] it was 0.904 µM. The TGI in assay [1], in assay [2], in assay [3], in assay [4], in assay [5] and in assay [6] was more than 25 µM throughout. Further, the TGI in assay [7] was 8.45 µM; in assay [8] it was 1.71 µM; in assay [9] it was more than 25 µM; in [10], more than 25 µM.

Turning to `C[C@H]1c2ccccc2CN1CCCOc1cc2c(cc1OCC1CC1)C1(CCCC1)C(N)=N2`, the GI50 in [1] is 0.888 µM; in assay [2], 0.925 µM; in assay [3], 0.633 µM; in assay [4], 2.07 µM; in assay [5] it was 5.65 µM; in [6], 4.8 µM. Also, the GI50 in assay [7] is 1.01 µM; in assay [8], 1.21 µM; in assay [9], 2.06 µM; in assay [10], 1.46 µM. The TGI was 1.68 µM in assay [1]; 1.93 µM in assay [2]; 3.54 µM in [3]; 8.26 µM in assay [4]; 11.8 µM in assay [5]; 10.8 µM in [6]. Besides, the TGI in assay [7] was determined as 3.13 µM; in assay [8], 3.16 µM; in assay [9], 8.2 µM; in [10] it was 6.82 µM.

For the compound `O=C1CCC(N2C(=O)c3cccc(NCCCC4CCN(CCNC(=O)c5cc6c(o5)C(=O)c5ccccc5C6=O)CC4)c3C2=O)C(=O)N1` (centres undefined), the GI50 in [1] was 0.14 µM; in [2], 0.304 µM; in [3], 3.51 µM; in assay [4], 2.25 µM; in [5], 0.673 µM; in assay [6], 0.636 µM. For the same compound, the GI50 was 1.7 µM in [7], 0.858 µM in [8], 1.44 µM in assay [9] and 2.27 µM in assay [10]. Further, the TGI in assay [1] came out at 0.284 µM; in assay [2] it was 0.98 µM; in assay [3], 15.1 µM; in assay [4] it was 4.4 µM; in assay [5], 1.97 µM; in assay [6], 2.15 µM. For the same compound, the TGI in [7] is 20.9 µM; in assay [8], 6.16 µM; in assay [9] it was 3.17 µM; in [10] it was more than 71.6 µM.

In the case of `C=CCn1c(=O)c2cnc(Nc3ccc(N4CCN(C)CC4)cc3)nc2n1-c1cccc(C(C)(C)O)n1`, the GI50 in assay [1] is 1.73 µM and 0.593 µM; in assay [2], 1.18 µM and 0.484 µM; in [3], 0.131 µM and 0.221 µM; in [4], 0.1 µM and 0.31 µM; in assay [5], 1.17 µM and 0.526 µM; in assay [6], 0.437 µM and 0.383 µM. The GI50 was 1.65 µM and 1.52 µM in assay [7]; 0.272 µM and 0.325 µM in [8]; 0.377 µM and 0.362 µM in assay [9]; 0.271 µM and 0.294 µM in assay [10]. Besides, the TGI in assay [1] was 18.4 µM and > 10 µM; in assay [2] it was 20.5 µM and > 10 µM; in [3] it was 3.92 µM and 2.38 µM; in [4] it was 5.94 µM and > 10 µM; in [5] it was more than 100 µM; in [6], 6.01 µM and > 6.27 µM. In addition, the TGI in assay [7] is 5.61 µM and 6.22 µM; in assay [8], 1.35 µM and > 3.11 µM; in assay [9] it was 9.71 µM and > 10 µM.
